# How the values were obtained:
# OATPIB1 = target: T1, OATPIB1 (Homo sapiens, UniProt Q9Y6L6); assay: transporter inhibition in vitro; format: in vitro ADME; conditions: at clinically relevant concentrations
# T1 sequence (Q9Y6L6 1-691): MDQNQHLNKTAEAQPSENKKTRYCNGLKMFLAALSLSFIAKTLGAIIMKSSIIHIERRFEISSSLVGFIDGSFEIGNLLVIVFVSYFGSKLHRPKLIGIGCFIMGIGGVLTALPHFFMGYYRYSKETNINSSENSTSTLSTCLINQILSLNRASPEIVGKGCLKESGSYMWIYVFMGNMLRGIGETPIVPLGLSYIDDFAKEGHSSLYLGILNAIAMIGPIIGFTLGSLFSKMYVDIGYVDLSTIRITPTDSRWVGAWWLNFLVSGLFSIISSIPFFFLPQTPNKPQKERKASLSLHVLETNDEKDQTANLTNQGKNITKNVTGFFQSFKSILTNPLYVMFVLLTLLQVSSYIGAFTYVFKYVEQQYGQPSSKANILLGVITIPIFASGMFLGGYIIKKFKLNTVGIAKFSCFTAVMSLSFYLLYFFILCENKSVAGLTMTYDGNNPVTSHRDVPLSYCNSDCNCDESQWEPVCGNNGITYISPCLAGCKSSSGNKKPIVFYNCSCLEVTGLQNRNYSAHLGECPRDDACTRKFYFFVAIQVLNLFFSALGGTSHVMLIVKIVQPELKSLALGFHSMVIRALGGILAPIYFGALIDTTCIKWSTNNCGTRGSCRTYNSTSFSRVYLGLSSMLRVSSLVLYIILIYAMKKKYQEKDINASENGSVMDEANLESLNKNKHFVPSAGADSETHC
# lung function = assay: Example 1: percent predicted FVC change from baseline; format: in vivo, human; conditions: mean (SD)
# Protocol: Change From Baseline in Percent Predicted Forced Vital Capacity (FVC) at Each Specified Time Points. FVC was the total amount of air (in liters) exhaled from the lungs during the lung function test measured by spirometer which assessed the change in lung function related to the disease status. Baseline value was defined as valid and last non-missing value obtained within 28 days prior to participant receiving first study medication. EOT visit was performed within 3 days after the participant's last dose of study drug. […] Analysis was performed on mITT population. Here, ‘number analyzed’=participants with available data for each specified category. Here, ‘0’ in the number analyzed field signifies that none of the participants were available for the analysis at the specified time points.
compound,measurement,setting,value
"CC(C)NC(=O)COc1cccc(-c2nc(Nc3ccc4[nH]ncc4c3)c3ccccc3n2)c1 [Belumosudil, 2-{3-[4-(1H-indazol-5-ylamino)-2-quinazolinyl]phenoxy}-N-(propan-2-yl) acetamide]",inhibition of OATPIB1,OATPIB1,inhibits
same,Change From Baseline in Percent Predicted Forced Vital Capacity (FVC),"lung function; Cohort 1: 200 mg QD, Cycle 3, Day 1",0.5 (3.8) percent predicted FVC
same,Change From Baseline in Percent Predicted Forced Vital Capacity (FVC),"lung function; Cohort 1: 200 mg QD, Cycle 5, Day 1",−0.5 (7.1) percent predicted FVC
same,Change From Baseline in Percent Predicted Forced Vital Capacity (FVC),"lung function; Cohort 1: 200 mg QD, Cycle 7, Day 1",−2.9 (5.2) percent predicted FVC
same,Change From Baseline in Percent Predicted Forced Vital Capacity (FVC),"lung function; Cohort 1: 200 mg QD, Cycle 9, Day 1",0.4 (5.1) percent predicted FVC
same,Change From Baseline in Percent Predicted Forced Vital Capacity (FVC),"lung function; Cohort 1: 200 mg QD, Cycle 11, Day 1",−1.1 (7.3) percent predicted FVC
same,Change From Baseline in Percent Predicted Forced Vital Capacity (FVC),"lung function; Cohort 1: 200 mg QD, Cycle 12, Day 1",2.0 (—) percent predicted FVC
same,Change From Baseline in Percent Predicted Forced Vital Capacity (FVC),"lung function; Cohort 1: 200 mg QD, Cycle 13, Day 1",−2.4 (7.9) percent predicted FVC
same,Change From Baseline in Percent Predicted Forced Vital Capacity (FVC),"lung function; Cohort 1: 200 mg QD, Cycle 14, Day 1",11.0 (—) percent predicted FVC
same,Change From Baseline in Percent Predicted Forced Vital Capacity (FVC),"lung function; Cohort 1: 200 mg QD, Cycle 15, Day 1",−3.7 (10.4) percent predicted FVC
same,Change From Baseline in Percent Predicted Forced Vital Capacity (FVC),"lung function; Cohort 1: 200 mg QD, Cycle 16, Day 1",16.0 (—) percent predicted FVC
same,Change From Baseline in Percent Predicted Forced Vital Capacity (FVC),"lung function; Cohort 1: 200 mg QD, Cycle 17, Day 1",−3.2 (6.3) percent predicted FVC
same,Change From Baseline in Percent Predicted Forced Vital Capacity (FVC),"lung function; Cohort 1: 200 mg QD, Cycle 19, Day 1",−2.3 (6.8) percent predicted FVC
same,Change From Baseline in Percent Predicted Forced Vital Capacity (FVC),"lung function; Cohort 1: 200 mg QD, Cycle 21, Day 1",−3.2 (8.1) percent predicted FVC
same,Change From Baseline in Percent Predicted Forced Vital Capacity (FVC),"lung function; Cohort 1: 200 mg QD, Cycle 23, Day 1",0.0 (12.3) percent predicted FVC
same,Change From Baseline in Percent Predicted Forced Vital Capacity (FVC),"lung function; Cohort 1: 200 mg QD, Cycle 24, Day 1",4.0 (—) percent predicted FVC
same,Change From Baseline in Percent Predicted Forced Vital Capacity (FVC),"lung function; Cohort 1: 200 mg QD, Cycle 25, Day 1",−7.0 (11.3) percent predicted FVC
same,Change From Baseline in Percent Predicted Forced Vital Capacity (FVC),"lung function; Cohort 1: 200 mg QD, Cycle 26, Day 1",4.0 (—) percent predicted FVC
same,Change From Baseline in Percent Predicted Forced Vital Capacity (FVC),"lung function; Cohort 1: 200 mg QD, Cycle 27, Day 1",−2.0 (4.2) percent predicted FVC
same,Change From Baseline in Percent Predicted Forced Vital Capacity (FVC),"lung function; Cohort 1: 200 mg QD, Cycle 29, Day 1",2.5 (4.9) percent predicted FVC
same,Change From Baseline in Percent Predicted Forced Vital Capacity (FVC),"lung function; Cohort 1: 200 mg QD, Cycle 30, Day 1",4.0 (—) percent predicted FVC
same,Change From Baseline in Percent Predicted Forced Vital Capacity (FVC),"lung function; Cohort 1: 200 mg QD, Cycle 31, Day 1",1.5 (3.5) percent predicted FVC
same,Change From Baseline in Percent Predicted Forced Vital Capacity (FVC),"lung function; Cohort 1: 200 mg QD, Cycle 32, Day 1",2.0 (—) percent predicted FVC
same,Change From Baseline in Percent Predicted Forced Vital Capacity (FVC),"lung function; Cohort 1: 200 mg QD, Cycle 33, Day 1",11.0 (0.0) percent predicted FVC
same,Change From Baseline in Percent Predicted Forced Vital Capacity (FVC),"lung function; Cohort 1: 200 mg QD, Cycle 34, Day 1",6.0 (—) percent predicted FVC
same,Change From Baseline in Percent Predicted Forced Vital Capacity (FVC),"lung function; Cohort 1: 200 mg QD, Cycle 35, Day 1",11.0 (5.7) percent predicted FVC
same,Change From Baseline in Percent Predicted Forced Vital Capacity (FVC),"lung function; Cohort 1: 200 mg QD, Cycle 36, Day 1",5.0 (—) percent predicted FVC
same,Change From Baseline in Percent Predicted Forced Vital Capacity (FVC),"lung function; Cohort 1: 200 mg QD, Cycle 48, Day 1",5.0 (—) percent predicted FVC
same,Change From Baseline in Percent Predicted Forced Vital Capacity (FVC),"lung function; Cohort 1: 200 mg QD, Cycle 49, Day 1",6.0 (—) percent predicted FVC
same,Change From Baseline in Percent Predicted Forced Vital Capacity (FVC),"lung function; Cohort 1: 200 mg QD, Cycle 51, Day 1",9.0 (—) percent predicted FVC
same,Change From Baseline in Percent Predicted Forced Vital Capacity (FVC),"lung function; Cohort 1: 200 mg QD, Cycle 52, Day 1",3.0 (—) percent predicted FVC
same,Change From Baseline in Percent Predicted Forced Vital Capacity (FVC),"lung function; Cohort 1: 200 mg QD, Cycle 53, Day 1",8.0 (—) percent predicted FVC
same,Change From Baseline in Percent Predicted Forced Vital Capacity (FVC),"lung function; Cohort 1: 200 mg QD, Cycle 54, Day 1",5.0 (—) percent predicted FVC
same,Change From Baseline in Percent Predicted Forced Vital Capacity (FVC),"lung function; Cohort 1: 200 mg QD, Cycle 55, Day 1",13.0 (—) percent predicted FVC
same,Change From Baseline in Percent Predicted Forced Vital Capacity (FVC),"lung function; Cohort 1: 200 mg QD, Cycle 56, Day 1",7.0 (—) percent predicted FVC
same,Change From Baseline in Percent Predicted Forced Vital Capacity (FVC),"lung function; Cohort 1: 200 mg QD, Cycle 57, Day 1",14.0 (—) percent predicted FVC
same,Change From Baseline in Percent Predicted Forced Vital Capacity (FVC),"lung function; Cohort 1: 200 mg QD, Cycle 58, Day 1",7.0 (—) percent predicted FVC
same,Change From Baseline in Percent Predicted Forced Vital Capacity (FVC),"lung function; Cohort 1: 200 mg QD, Cycle 60, Day 1",8.0 (—) percent predicted FVC
same,Change From Baseline in Percent Predicted Forced Vital Capacity (FVC),"lung function; Cohort 1: 200 mg QD, Cycle 61, Day 1",12.0 (—) percent predicted FVC
same,Change From Baseline in Percent Predicted Forced Vital Capacity (FVC),"lung function; Cohort 1: 200 mg QD, Cycle 62, Day 1",5.0 (—) percent predicted FVC
same,Change From Baseline in Percent Predicted Forced Vital Capacity (FVC),"lung function; Cohort 1: 200 mg QD, Cycle 63, Day 1",12.0 (—) percent predicted FVC
same,Change From Baseline in Percent Predicted Forced Vital Capacity (FVC),"lung function; Cohort 1: 200 mg QD, Cycle 67, Day 1",14.0 (—) percent predicted FVC
same,Change From Baseline in Percent Predicted Forced Vital Capacity (FVC),"lung function; Cohort 1: 200 mg QD, EOT",−2.5 (10.3) percent predicted FVC
same,Change From Baseline in Percent Predicted Forced Vital Capacity (FVC),"lung function; Cohort 2: 200 mg BID, Cycle 3, Day 1",−2.4 (6.0) percent predicted FVC
same,Change From Baseline in Percent Predicted Forced Vital Capacity (FVC),"lung function; Cohort 2: 200 mg BID, Cycle 5, Day 1",−4.3 (5.2) percent predicted FVC
same,Change From Baseline in Percent Predicted Forced Vital Capacity (FVC),"lung function; Cohort 2: 200 mg BID, Cycle 7, Day 1",−1.3 (6.4) percent predicted FVC
same,Change From Baseline in Percent Predicted Forced Vital Capacity (FVC),"lung function; Cohort 2: 200 mg BID, Cycle 8, Day 1",2.0 (—) percent predicted FVC
same,Change From Baseline in Percent Predicted Forced Vital Capacity (FVC),"lung function; Cohort 2: 200 mg BID, Cycle 9, Day 1",−2.9 (5.5) percent predicted FVC
same,Change From Baseline in Percent Predicted Forced Vital Capacity (FVC),"lung function; Cohort 2: 200 mg BID, Cycle 10, Day 1",−5.0 (8.5) percent predicted FVC
same,Change From Baseline in Percent Predicted Forced Vital Capacity (FVC),"lung function; Cohort 2: 200 mg BID, Cycle 11, Day 1",−2.7 (5.6) percent predicted FVC
